Experimental data published in patent publication US10004718B2, “Erythropoietin expression promoter” (TOHOKU UNIVERSITY, priority 2012, dated 2018).

How the values were obtained:
[1] = system: human kidney-derived cell line HK-2; experiment: Renal protective effect: cisplatin cytotoxicity to HK-2 cells; type: cell-based; conditions: for HK-2 cell death by cisplatin: cisplatin 30 μM
Method: The HK-2 cells were seeded at 5×10^3 cells/well to a 96-well cell culture plate and then cultured overnight. Cisplatin and compound #4 were mixed at 30 μM and each concentration (30, 10, 3, 1, 0.3, 0.1, 0.03, 0.01, and 0.003 μM), respectively, into DMEM/F12 common medium. After further culture for 24 hours, conversion to formazan dye by mitochondrial dehydrogenase in live cells was detected by the measurement of absorbance at OD […] using a kit (Cell counting kit-8, manufactured by Dojindo Laboratories) to analyze the ratio of live cells. HK-2 cells cultured in the absence of cisplatin (“Cisplatin-” of FIG. 14) and HK-2 cells cultured in the presence of cisplatin (30 μM) and in the absence of the compound #4 (“Cisplatin+” of FIG. 14) were used as controls.
The cells were cultured in advance for 1 hour with the compound #4 of the present invention having a concentration of 3 μM and then analyzed according to the method described in Example 12.

[2] = Liver function in mice (plasma GOT, GPT, erythropoietin); type: in vivo, mouse; conditions: oral, 7 consecutive days
Method: Compound #4 (10 mg/100 μl of DMSO) (10 μl) and compound #4 (20 mg/100 μl of DMSO) (15 μl) were mixed with 190 μl and 185 μl, respectively, of corn oil to prepare low-concentration (5 μg/ml) compound #4 and high-concentration (15 μg/ml) compound #4 mixed solutions (200 μl each). Each mixed solution (200 μl) was orally administered to each mouse (C57BL/6N 8 W, male, 21-25 g) between 15:00 to 18:00 every day using a sonde. This administration was carried out for 7 consecutive days (n=4). Mice orally given DMSO were used as controls (n=4).
24 hours after the final administration, each mouse was cervically dislocated, and 500 μl of blood was collected from the heart. Then, an anticoagulant (10 μl of heparin) was added thereto, and the resulting blood was centrifuged (12000 rpm×20 min, 4° C.) to isolate plasma. The plasma concentrations of indexes for liver functions (GOT [glutamic oxaloacetic transaminase] and GPT [glutamic pyruvic transaminase]) were measured using Transaminase CII-Test Wako (manufactured by Wako Pure Chemical Industries, Ltd.) to examine the effect of improving liver functions. Also, the plasma concentration ([…]) of erythropoietin was measured using a kit (Quantikine Mouse/Rat Epo Immunoassay, manufactured by R&D Systems, Inc.).

[3] = system: ISN-1e cells; experiment: ATP production in islet of Langerhans-derived ISN-1e cells (insulin secretion); type: cell-based, rat; conditions: compound 0.03 to 10 μM, 3 hours
Method: The ISN-1e cells were seeded at 2×10^5 cells/well to a 96-well cell culture plate and then cultured overnight. Compound #4 was mixed at each concentration (10, 3, 1, 0.3, 0.1, and 0.03 μM) into RPMI11640 common medium 2. After further culture for 3 hours, the concentration of ATP produced in the medium was measured using ATP Assay Reagent “of Cells” (manufactured by Toyo B-Net Co., Ltd.) and GloMa 96 Microplate Luminometer (manufactured by Promega K.K.). ISN-1e cells cultured in the absence of the compound (DMSO added [1%]) (“control” of FIG. 16) and ISN-1e cells cultured in the presence of an HIF activator (FG-4592 [10, 3, 1, 0.3, and 0.1 μM]) were used as controls.

[4] = system: MCA (middle cerebral artery) occlusion mouse models; experiment: Cerebral ischemic injury, MCA occlusion mouse model (TTC staining); type: in vivo; conditions: 40 mg/kg intraperitoneal 4 hours before ischemia, 24 hours after reperfusion, vs DMSO, n=1
Method: Two types of compounds (compounds #4 and 35) (40 mg/kg of mouse body weight) were each intraperitoneally administered to a mouse 4 hours before ischemia (n=1). A vehicle (DMSO) was administered to a control (n=1). Anesthesia was induced in each mouse with 4% halothane and oxygen and maintained by the intraperitoneal administration of ketamine (40 mg/kg) and xylazine (4 mg/kg) at 30-minute intervals. After the induction of systemic anesthesia, bifurcation of the common carotid artery was exposed under a microscope. A 6-0 nylon thread having a silicon-coated tip was inserted from the internal carotid artery toward the central side so that its tip reached the anterior communicating artery. The common carotid artery was further ligated to block blood flow into the middle cerebral artery. After the ischemic burden for 30 minutes, the nylon thread was removed so that the ligated common carotid artery was released to induce reperfusion.
24 hours after the reperfusion, each mouse was cervically dislocated and then decapitated to excise the brain. Five coronal sections of the cerebrum having a thickness of 2 mm were prepared from the boundary between the cerebrum and the cerebellum. The coronal sections of the cerebrum were stained with TCC through a reaction at 37° C. for 20 minutes with a TTC solution diluted to 1.5% with PBS. […]

[5] = Erythrocyte production in mice (Hct value and hemoglobin, i-STAT); type: in vivo, mouse; conditions: 1 mg/200 μl of CMC oral, 7 consecutive days, n=3, mean±standard deviation
Method: Compound #4 (1 mg) was mixed with 200 μl of CMC (carboxymethylcellulose). This compound #4 mixed solution (1 mg/200 μl of CMC) was orally administered to each mouse (C57BL/6N 8 W, male, 21-25 g) between 15:00 to 18:00 every day using a sonde. This administration was carried out for 7 consecutive days (n=3). Mice orally given CMC were used as controls (n=3).
24 hours after the final administration, each mouse was cervically dislocated, and 500 μl of blood was collected from the heart. Then, an anticoagulant (10 μl of heparin) was added thereto, and the Hct value and the hemoglobin concentration were measured using i-STAT (manufactured by Fuso Pharmaceutical Industries, Ltd.).

O=C(CC(C(=O)O)c1c[nH]c2ccccc12)c1ccc(F)cc1 (stereo not shown) [compound #4, 4-(4-Fluorophenyl)-2-(1H-indol-3-yl)-4-oxo-butanoic acid]
HK-2 cell death by cisplatin ([1]; compound at a concentration around 30 μM): efficiently suppress cell death
HK-2 cell death by cisplatin ([1]; compound at least at a concentration of 1 to 300 μM, 24 hours): significantly suppressed
HK-2 cell death by cisplatin with preincubation compared with no preincubation ([1]; preincubation 1 hour with 3 μM compound): further suppressed
erythropoietin concentration in the mouse plasma ([2]; low concentration (5 μg/ml) and high concentration (15 μg/ml)): elevate the erythropoietin concentration
GOT concentration in the plasma ([2]; mice): lower
GPT concentration in the plasma ([2]; mice): lower
ATP concentration in the ISN-1e cells relative to the control [3]: two or more times relative to the control
volume of the cerebral infarction site [4]: decreased
Hct value [5]: 47.7±0.816 % PCV
hemoglobin concentration in the mouse blood [5]: 16.2 ± 0.286 g/dL
